Measurements published in patent US20090118361A1, “SUPPRESSOR OF EXPRESSION OF MCP-1, AND AMELIORATING AGENT FOR INFLAMMATORY DISEASE, PHARMACEUTICAL, SUPPLEMENT, FOOD, BEVERAGE OR FOOD ADDITIVE USING THE SUPPRESSOR” (ARKRAY, INC., priority 2006, published 2009).

What was measured:
MCP-1 [1] = test: Suppression of MCP-1 mRNA expression in differentiated 3T3-L1 adipocytes (Light Cycler quantitative determination, ratio to 36B4); type: cell-based, mouse; conditions: 3T3-L1, eight days after start of differentiation induction, MCP-1/36B4 ratio relative to non-treated control = 100%, mean ± standard error
Method: (§1) First, two types of culture media indicated below, i.e. a differentiation induction culture medium and a differentiation enhancing culture medium, were prepared.
(§2) (Composition: 0.25 μM DEX, 0.5 mM MIX, 10 μg/mL insulin/10% FBS-containing DMEM)
(§3) First, 55 mL of FBS (fetal bovine serum (manufactured by GIBCO)) was added to 500 mL of DMEM (manufactured by SIGMA), and thereby 10% FBS-containing DMEM was prepared. Thereafter, 138.75 μL of 1 mM DEX (dexamethasone)-containing DMSO (manufactured by Nacalai Tesque, Inc.) and 555 μL of 10 mg/mL insulin-containing PBS (manufactured by SIGMA) were added thereto. The insulin-containing PBS was prepared as follows. That is, 1N HCl was added to PBS beforehand, so that PBS acidified to a degree that allowed insulin to dissolve therein, and thereafter insulin was dissolved therein. MIX (3-Isobutyl-1-methylxanthine) (manufactured by Nacalai Tesque, Inc.) was added to a required amount of the culture medium immediately before use so as to be 0.5 mM. Thus a differentiation induction culture medium was prepared. Since MIX was very difficult to dissolve, it first was dissolved in a small amount of 99.5% ethanol. which was then added to 10% FBS-containing DMEM. In this case, the final concentration of 99.5% ethanol in the differentiation induction culture medium was adjusted so as not to exceed 1%.
(§4) (Composition: 5 ug/mL insulin/10% FBS-containing DMEM/auraptene)
First, 277.5 μL of the aforementioned 10 mg/mL insulin-containing PBS was added to 555 ml, of 10% FBS-containing DMEM. Furthermore, auraptene (AUR) with various concentrations was added to this mixture and thereby differentiation enhancing culture media were prepared. […]
Subsequently, frozen cultured preadipocyte 3T3-L1 was thawed and was plated on the culture medium placed in a 100-mm dish. […] Subsequently, using a Light/Cycler®, the levels of mRNA expression of MCP-1 and 36B4, […], were measured. […]

MCP-1 [2] = test: MCP-1 protein secretion into conditioned medium of differentiated 3T3-L1 adipocytes (ELISA); type: cell-based, mouse; conditions: 3T3-L1 conditioned medium, eight days after start of differentiation induction, relative to non-treated control = 100, mean ± standard error
Method: as §1, §2, §3, §4
First, 277.5 μL of the aforementioned 10 mg/mL insulin-containing PBS was added to 555 ml, of 10% FBS-containing DMEM. Furthermore, auraptene (AUR) with various concentrations was added to this mixture and thereby differentiation enhancing culture media were prepared. In this case, a cultured cell obtained by using auraptene-free differentiation enhancing culture medium containing DMSO added instead of auraptene was employed as a non-treated control (control).
Subsequently, frozen cultured preadipocyte 3T3-L1 was thawed and was plated on the culture medium placed in a 100-mm dish. This was cultured until 3T3-L1 reached about 80% confluent. One dish of 3T3-L1 that had reached about 80% confluent was subcultured on a 6-well plate. Subsequently, after 3T3-L1 subcultured on the 6-well plate further was cultured until it reached 100% confluent, the culture medium was replaced by a differentiation induction culture medium and thereby differentiation was induced. Subsequently, 48 hours after replacement by a differentiation induction culture medium, the culture medium was replaced by a differentiation enhancing culture medium. Thereafter, replacement of the differentiation enhancing culture medium was carried out every three days. Using Sepasol RNA I Super (trade name, manufactured by Nacalai Tesque, Inc.), mRNA was extracted from the cultured cells eight days after the start of differentiation induction. Subsequently, using a Light/Cycler®, the levels of mRNA expression of MCP-1 and 36B4, […], were measured. The measurement of the levels of mRNA expression is described below in detail.
Furthermore, the culture medium obtained eight days after the start of differentiation induction was collected in an amount of 1 mL from each well. Using an ELISA kit (manufactured by BD Bioscience, trade name: BD OptEIA Set Mouse MCP-1), the amount of MCP-1 (protein abundance) in the conditioned medium was measured according to the manual of the kit.
The relative ratios calculated, with the measured value of the non-treated control (control) with respect to the measured value of the secretion amount of MCP-1 by ELISA being taken as 100, are indicated in Table 2 below and in the graph shown in FIG. 2. The auraptene concentrations indicated in Table 2 below and FIG. 2 are final concentrations in the differentiation enhancing culture media. In FIG. 2, AUR denotes auraptene, and Ctrl indicates the non-treated control (control). […]

For CC(C)=CCC/C(C)=C/COc1ccc2ccc(=O)oc2c1 [Example 1, auraptene], the “mRNA concentration of MCP-1” value (MCP-1 [1]; auraptene 5 μM in differentiation enhancing medium) was 99.8 ± 8.0%, the “mRNA concentration of MCP-1” value (MCP-1 [1]; auraptene 20 μM in differentiation enhancing medium) was 62.3 ± 5.8% and the “mRNA concentration of MCP-1” value (MCP-1 [1]; auraptene 50 μM in differentiation enhancing medium) was 28.3 ± 2.9%. The “Protein secretion amount of MCP-1” value (MCP-1 [2]; auraptene 1 μM) was 94.6 ± 4.9%, the “Protein secretion amount of MCP-1” value (MCP-1 [2]; auraptene 5 μM) was 98.6 ± 2.5% and the “Protein secretion amount of MCP-1” value (MCP-1 [2]; auraptene 10 μM) was 92.1 ± 4.6%. The “Protein secretion amount of MCP-1” value (MCP-1 [2]; auraptene 20 μM) was 72.3 ± 2.2%, the “Protein secretion amount of MCP-1” value (MCP-1 [2]; auraptene 30 μM) was 63.9 ± 2.5% and the “Protein secretion amount of MCP-1” value (MCP-1 [2]; auraptene 50 μM) was 48.5 ± 2.1%.
